This note sets out measurements from US9315502B2, “Imidazopyridine derivatives” (Hoffmann-La Roche Inc., priority 2012, dated 2016).

The test system of series [1] is human embryonic stem cell derived neural stem cells (NSCs). In words: Neural Stem Cell Proliferation Assay (neurogenesis assay, ATP levels by CellTiterGlo). The class given is cell-based. The following applies: 96 h, compound concentration at which 150% activity of control (100%) is reached, NSC proliferation, 4 days incubation. The method, then: Neural Stem Cell Proliferation Assay
Neurogenic properties of small molecules are determined based on the proliferation of human embryonic stem cell derived neural stem cells (NSCs) which were derived via a dual smad inhibition as previously described (Chambers, S. M., et al., Highly efficient neural conversion of human ES and iPS cells by dual inhibition of SMAD signaling, Nature biotechnology, 2009. 27(3): p. 275-80.)
Compounds respond is measured by the increase in cells based on ATP levels
(Promega:CellTiterGlo®) after an incubation period of 4 days.
NSCs are thawed and expanded over 3 passages. On the 14th day, NSCs are seeded in Polyornithin/Laminin coated 384 well plates at a cell density of 21′000 cells/cm^2 in a media volume of 38 μl.
4 hours after cell seeding, compound solutions are added at a volume of 2 μl. Stock solutions of the compounds (water, 5% DMSO) are diluted to obtain a dose response (11 points, dilution factor is 2), ranging from 8 μM to 8 nM. Controls are run to consistently determine the neurogenic properties of the cells:
Negative (neutral) control is cell culture Media (final DMSO concentration: 0.25%). Positive controls are: • 1. cell culture Media+100 ng/ml FGF2 (final DMSO concentration: 0.1%) • 2. cell culture Media+20 ng/ml EGF (final DMSO concentration: 0.1%) • 3. cell culture Media+100 ng/ml Wnt3a (final DMSO concentration: 0.1%)
After 4 days incubation at 37° C., 5% CO2, the amount of ATP per well is quantified. The ATP concentration is proportional to the cell number. ATP is quantified by using the Promega CellTiterGlo® kit. The CellTiterGlo® reagents contain a cell lysis buffer, a thermo stable luciferase (UltraGlo™ recombinant luciferase), magnesium and luciferin. Luciferin reacts with ATP producing oxyluciferin, AMP and light. The luminescence signal is proportional to the ATP content.
The value of negative (neutral) control is determined for each assay plate by taking the average of 16 negative control wells. The neurogenic compound response is calculated for each compound as (compound/Negative Control)* 100.
The values of EC150 from the dose response curve are determined for each test compound. The EC150 is the compound concentration at which 150% activity of control (100%) is reached.

The structures appear in SMILES notation.

For orientation: melting point means the temperature of the solid-liquid transition. Take `Fc1ccc(-c2cnc3ccc(-c4ccnn4-c4ccc(F)cc4)cn23)cc1` [Example 1, 3-(4-Fluoro-phenyl)-6-[2-(4-fluoro-phenyl)-2H-pyrazol-3-yl]-imidazo[1,2-a]pyridine]: the melting point turned out to be 172 °C. This compound registered an EC (150% of control) in series [1] of 0.019 µM.

The compound `Clc1ccc(-c2cnc3ccc(-c4ccnn4-c4ccc(Cl)cc4)cn23)cc1` [Example 2, 3-(4-Chloro-phenyl)-6-[2-(4-chloro-phenyl)-2H-pyrazol-3-yl]-imidazo[1,2-a]pyridine] displayed a melting point of 172.5 °C. In series [1], the EC (150% of control) was found to be 0.1 µM.

For `Fc1ccc(-c2cnc3ccc(-c4ccnn4-c4ccc(Cl)cc4)cn23)cc1` [Example 3, 6-[2-(4-Chloro-phenyl)-2H-pyrazol-3-yl]-3-(4-fluoro-phenyl)-imidazo[1,2-a]pyridine], the melting point stood at 147 °C. In addition, the EC (150% of control) in series [1] was 0.096 µM.

In the case of `Fc1ccc(-n2nccc2-c2ccc3ncc(-c4ccc(Cl)cc4)n3c2)cc1` [Example 4, 3-(4-Chloro-phenyl)-6-[2-(4-fluoro-phenyl)-2H-pyrazol-3-yl]-imidazo [1,2-a]pyridine], the melting point came to 171 °C. The compound also gave an EC (150% of control) in series [1] of 0.092 µM.

Compound `Cc1ccc(-n2nccc2-c2ccc3ncc(-c4ccc(F)cc4)n3c2)cc1` [Example 5, 3-(4-Fluoro-phenyl)-6-(2-p-tolyl-2H-pyrazol-3-yl)-imidazo[1,2-a]pyridine] had a melting point of 141 °C. In addition, the EC (150% of control) in series [1] is 0.008 µM.

On to `Fc1ccc(-n2nccc2-c2ccc3ncc(-c4ccncc4)n3c2)cc1` [Example 6, 6-[2-(4-Fluoro-phenyl)-2H-pyrazol-3-yl]-3-pyridin-4-yl-imidazo [1,2-a]pyridine], for which the melting point is 201 °C. For the same compound, the EC (150% of control) in series [1] is 0.026 µM.

On to `Clc1ccc(-n2nccc2-c2ccc3ncc(-c4ccncc4)n3c2)cc1` [Example 7, 6-[2-(4-Chloro-phenyl)-2H-pyrazol-3-yl]-3-pyridin-4-yl-imidazo[1,2-a]pyridine], for which the melting point amounted to 186 °C. Besides, in series [1], the EC (150% of control) was 0.022 µM.

On to `c1ccc(-c2cnc3ccc(-c4ccnn4-c4ccccc4)cn23)cc1` [Example 8, 3-Phenyl-6-(2-phenyl-2H-pyrazol-3-yl)-imidazo[1,2-a]pyridine], for which the melting point was 139 °C. Besides, the EC (150% of control) in series [1] was 0.019 µM.

Consider `Fc1ccc(-n2nccc2-c2ccc3ncc(-c4ccc(Cl)cc4F)n3c2)cc1` [Example 9, 3-(4-Chloro-2-fluoro-phenyl)-6-[2-(4-fluoro-phenyl)-2H-pyrazol-3-yl]-imidazo[1,2-a]pyridine], for which the melting point was found to be 187 °C. For the same compound, in series [1], the EC (150% of control) amounted to 0.055 µM.

Compound `Cc1ccc(-n2nccc2-c2ccc3ncc(-c4ccccc4)n3c2)cc1` [Example 10, 3-Phenyl-6-(2-p-tolyl-2H-pyrazol-3-yl)-imidazo[1,2-a]pyridine] had a melting point of 107 °C. The compound also displayed an EC (150% of control) in series [1] of 0.009 µM.

In turn, `Fc1cc(Cl)ccc1-c1cnc2ccc(-c3ccnn3-c3ccc(Cl)cc3)cn12` [Example 11, 3-(4-Chloro-2-fluoro-phenyl)-6-[2-(4-chloro-phenyl)-2H-pyrazol-3-yl]-imidazo[1,2-a]pyridine] came in with a melting point of 148 °C. The EC (150% of control) in series [1] came out at 0.089 µM.

With `COc1ccc(-c2cnc3ccc(-c4ccnn4-c4ccc(Cl)cc4)cn23)cc1` [Example 12, 6-[2-(4-Chloro-phenyl)-2H-pyrazol-3-yl]-3-(4-methoxy-phenyl)-imidazo [1,2-a]pyridine], the melting point was determined as 142 °C. For the same compound, the EC (150% of control) in series [1] turned out to be 0.045 µM.

Consider `COc1ccc(-c2cnc3ccc(-c4ccnn4-c4ccc(F)cc4)cn23)cc1` [Example 13, 6-[2-(4-Fluoro-phenyl)-2H-pyrazol-3-yl]-3-(4-methoxy-phenyl)-imidazo [1,2-a]pyridine], for which the melting point stood at 162 °C. The compound further displayed an EC (150% of control) in series [1] of 0.024 µM.

Turning to `Fc1ccc(-n2nccc2-c2ccc3ncc(-c4ccc(F)cc4F)n3c2)cc1` [Example 14, 3-(2,4-Difluoro-phenyl)-6-[2-(4-fluoro-phenyl)-2H-pyrazol-3-yl]-imidazo[1,2-a]pyridine], the melting point is 168 °C. The EC (150% of control) in series [1] was 0.053 µM.

Take `Fc1ccc(-c2cnc3ccc(-c4ccnn4-c4ccc(Cl)cc4)cn23)c(F)c1` [Example 15, 6-[2-(4-Chloro-phenyl)-2H-pyrazol-3-yl]-3-(2,4-difluoro-phenyl)-imidazo[1,2-a]pyridine]: the melting point stood at 152 °C. Moreover, the EC (150% of control) in series [1] was determined as 0.029 µM.

In turn, `Fc1ccc(-c2cnc3ccc(-c4cncn4-c4ccc(F)cc4)cn23)cc1` [Example 16, 3-(4-Fluoro-phenyl)-6-[3-(4-fluoro-phenyl)-3H-imidazol-4-yl]-imidazol[1,2-a]pyridine] came in with a melting point of 206 °C. Moreover, in series [1], the EC (150% of control) stood at 0.053 µM.

As for `FC(F)(F)c1ccc(-c2cnc3ccc(-c4ccnn4-c4ccc(Cl)cc4)cn23)cc1` [Example 17, 6-[2-(4-Chloro-phenyl)-2H-pyrazol-3-yl]-3-(4-trifluoromethyl-phenyl)-imidazo[1,2-a]pyridine], the melting point amounted to 167 °C. The EC (150% of control) in series [1] was 0.38 µM.

The compound `Fc1ccc(-n2nccc2-c2ccc3ncc(-c4ccc(C(F)(F)F)cc4)n3c2)cc1` [Example 18, 6-[2-(4-Fluoro-phenyl)-2H-pyrazol-3-yl]-3-(4-trifluoromethyl-phenyl)-imidazo[1,2-a]pyridine] gave a melting point of 172 °C. In series [1], this compound showed an EC (150% of control) of 0.18 µM.

`N#Cc1ccc(-c2cnc3ccc(-c4ccnn4-c4ccc(F)cc4)cn23)cc1` [Example 19, 4-{6-[2-(4-Fluoro-phenyl)-2H-pyrazol-3-yl]-imidazo [1,2-a]pyridin-3-yl}-benzonitrile] returned a melting point of 215 °C. The compound further displayed an EC (150% of control) in series [1] of 0.03 µM.

Regarding `N#Cc1ccc(-c2cnc3ccc(-c4ccnn4-c4ccc(Cl)cc4)cn23)cc1` [Example 20, 4-{6-[2-(4-Chloro-phenyl)-2H-pyrazol-3-yl]-imidazo[1,2-a]pyridin-3-yl}-benzonitrile], the melting point came to 208 °C. This compound also displayed an EC (150% of control) in series [1] of 0.04 µM.

In the case of `CS(=O)(=O)c1ccc(-c2cnc3ccc(-c4ccnn4-c4ccc(Cl)cc4)cn23)cc1` [Example 21, 6-[2-(4-Chloro-phenyl)-2H-pyrazol-3-yl]-3-(4-methanesulfonyl-phenyl)-imidazo[1,2-a]pyridine], the melting point amounted to 259 °C. For the same compound, in series [1], the EC (150% of control) amounted to 0.25 µM.

Take `CS(=O)(=O)c1ccc(-c2cnc3ccc(-c4ccnn4-c4ccc(F)cc4)cn23)cc1` [Example 22, 6-[2-(4-Fluoro-phenyl)-2H-pyrazol-3-yl]-3-(4-methanesulfonyl-phenyl)-imidazo[1,2-a]pyridine]: the melting point stood at 226 °C. Further, the EC (150% of control) in series [1] is 0.24 µM.

`Fc1ccc(-c2cnc3ccc(-c4ccnn4-c4ccc(C(F)(F)F)cc4)cn23)cc1` [Example 23, 3-(4-Fluoro-phenyl)-6-[2-(4-trifluoromethyl-phenyl)-2H-pyrazol-3-yl]-imidazo[1,2-a]pyridine] came in with a melting point of 147 °C. The EC (150% of control) in series [1] was found to be 0.79 µM.

As to `N#Cc1ccc(-c2cnc3ccc(-c4ccnn4-c4ccc(C(F)(F)F)cc4)cn23)cc1` [Example 24, 4-{6-[2-(4-Trifluoromethyl-phenyl)-2H-pyrazol-3-yl]-imidazo [1,2-a]pyridin-3-yl}-benzonitrile], the melting point came to 201 °C. For the same compound, in series [1], the EC (150% of control) is 2.6 µM.
